How the values were obtained:
Ovis aries [1] = species on record: Ovis aries; test: Inhibition of COX in sheep seminal vesicle microsome assessed as reduction in PGE2 concentration at 13 uM relative to control; type: microsomes
Ovis aries [2] = species on record: Ovis aries; test: Inhibition of COX in sheep seminal vesicle microsome assessed as reduction in PGE2 concentration at 6.5 uM relative to control; type: microsomes
Sus scrofa = species on record: Sus scrofa; test: Inhibition of 5-LO from pig leukocytes at 5 uM

Row | inhibition (Ovis aries [1]) [%] | inhibition (Ovis aries [2]) [%] | inhibition (Sus scrofa) [%] | Structure (SMILES)
1 | 51 | 36 | 45 | CCCC/C=C\C#CC#CCCCCCC(=O)O
2 | 56 | 40 | 55 | CCCCC/C=C\CC#CC#CCCCCCC(=O)O
3 | 56 | 44 | 14 | CCCC/C=C/C#CC#CCCCCC(=O)O
4 | 55 | 36 | 18 | CCCCC#CC#CC#CCCCCC(=O)O
5 | 45 | 33 | 21 | CCCCCC#CC#CC#CCCCCCCC(=O)O

From ChEMBL document CHEMBL1158663, “New acetylenes isolated from the bark of Heisteria acuminata” (J Nat Prod, 1998)
